Reference: patent US12084472B2 (Ardelyx, Inc., priority 2015, dated 2024)

Biological target: T1, human TGR5 (Homo sapiens, UniProt Q8TDU6)
T1 construct: expressed in transfected cells; host or cells: HEK293
T1 sequence (Q8TDU6 1-330): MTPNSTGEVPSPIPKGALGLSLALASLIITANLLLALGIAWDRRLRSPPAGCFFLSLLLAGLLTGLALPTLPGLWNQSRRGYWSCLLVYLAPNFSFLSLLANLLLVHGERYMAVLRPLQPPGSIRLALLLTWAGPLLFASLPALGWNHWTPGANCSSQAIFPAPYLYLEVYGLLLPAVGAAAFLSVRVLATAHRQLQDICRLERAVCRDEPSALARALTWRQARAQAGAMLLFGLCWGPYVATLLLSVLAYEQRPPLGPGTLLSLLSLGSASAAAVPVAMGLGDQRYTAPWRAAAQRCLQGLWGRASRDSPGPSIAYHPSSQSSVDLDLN
Test: Cell-based TGR5 assay (cAMP generation, HTRF)
Conditions: HEK293 cells stably transfected with human TGR5; cAMP by HTRF; 30 minutes at 37° C.; read-out: pEC50 Human TGR5 (converted)
In short: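 Read-out was HTRF detection of cAMP, converted to concentration via a standard curve and fitted (3-parameter logistic) for pEC50 and maximal response. Agonist stimulation used HEK293 cells stably transfected with human TGR5, incubated 30 min at 37° C in IBMX-containing buffer at 0.05 nM to 10 μM compound.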

Row | EC50 | Compound
1 | < 100 nM | COCCCN(CCCC(C)c1ccc(C)c(CNC2(c3cnccc3-c3ccccc3OC3CC3)CC2)c1)C(=O)[C@@H](O)[C@@H](O)[C@H](O)[C@@H](O)CO (stereo partly drawn) [Compound I-303, (2S,3S,4R,5S)-N-(4-{3-[({1-[4-(2-cyclopropoxyphenyl)pyridin-3-yl]cyclopropyl}amino)methyl]-4-methylphenyl}pentyl)-2,3,4,5,6-pentahydroxy-N-(3-methoxypropyl)hexanamide]
2 | 126 to 1000 nM | CSc1ccccc1-c1ccncc1C1(NCc2cc(Cl)ccc2Cl)CC1 [Compound I-7, N-[(2,5-dichlorophenyl)methyl]-1-{4-[2-(methylsulfanyl)phenyl]pyridin-3-yl}cyclopropan-1-amine]
3 | < 100 nM | CN(CCOCCNC(=O)NC[C@H](O)[C@@H](O)[C@H](O)[C@H](O)CO)S(=O)(=O)c1ccc(Cl)c(COC2(c3cnccc3-c3ccccc3OC3CC3)CC2)c1 (stereo in doubt) [Compound I-404, 1-(2-{2-[N-methyl4-chloro-3-({1-[4-(2-cyclopropoxyphenyl)pyridin-3-yl]cyclopropoxy}methyl)benzenesulfonamido]ethoxy}ethyl)-3-[(2S,3R,4R,5R)-2,3,4,5,6-pentahydroxyhexyl]urea]
4 | 126 to 1000 nM | O=C(O)COCC(=O)N(CCCCc1cc(Cl)c(COC2(c3cnccc3-c3ccccc3OC3CC3)CC2)cc1Cl)C[C@H](O)[C@@H](O)[C@H](O)[C@H](O)CO (stereo in doubt) [Compound I-186, 2-[({4-[2,5-dichloro-4-({1-[4-(2-cyclopropoxyphenyl)pyridin-3-yl]cyclopropoxy}methyl)phenyl]butyl}[(2S,3R,4R,5R)-2,3,4,5,6-pentahydroxyhexyl]carbamoyl)methoxy]acetic acid]
5 | < 100 nM | CC(CCCC(=O)N1CCC(NC(=O)NC[C@H](O)[C@@H](O)[C@H](O)[C@H](O)CO)CC1)c1ccc(Cl)c(CNC2(c3cnccc3-c3ccccc3OC3CC3)CC2)c1 (stereo partly drawn) [Compound I-320, 1-[1-(5-{4-chloro-3-[({1-[4-(2-cyclopropoxyphenyl)pyridin-3-yl]cyclopropyl}amino)methyl]phenyl}hexanoyl)piperidin-4-yl]-3-[(2S,3R,4R,5R)-2,3,4,5,6-pentahydroxyhexyl]urea]
6 | < 100 nM | CN(CCOCCNC(=O)N[C@@H](CO)[C@@H](O)[C@H](O)[C@H](O)CO)S(=O)(=O)c1ccc(Cl)c(COC2(c3cnccc3-c3ccccc3OC3CC3)CC2)c1 (stereo in doubt) [Compound I-406, 1-(2-{2-[N-methyl4-chloro-3-({1-[4-(2-cyclopropoxyphenyl)pyridin-3-yl]cyclopropoxy}methyl)benzenesulfonamido]ethoxy}ethyl)-3-[(2S,3R,4S,5R)-1,3,4,5,6-pentahydroxyhexan-2-yl]urea]
7 | 126 to 1000 nM | O=C(CCS(=O)(=O)c1ccccc1)N(CCCCc1cc(Cl)c(COC2(c3cnccc3-c3ccccc3OC3CC3)CC2)cc1Cl)C[C@H](O)[C@@H](O)[C@H](O)[C@H](O)CO [Compound I-70, 3-(benzenesulfonyl)-N-{4-[2,5-dichloro-4-({1-[4-(2-cyclopropoxyphenyl)pyridin-3-yl]cyclopropoxy}methyl)phenyl]butyl}-N-[(2S,3R,4R,5R)-2,3,4,5,6-pentahydroxyhexyl]propanamide]
8 | 126 to 1000 nM | CCc1ccc(SCCCC(=O)NC[C@H](O)[C@@H](O)[C@H](O)[C@H](O)CO)cc1COC1(c2cnccc2-c2ccccc2OC2CC2)CC1 [Compound I-497, 4-[[3-([l-[4-(2-Cyclopropoxyphenyl)pyridin-3-yl]cyclopropoxy]methyl)-4-ethylphenyl]sulfanyl]-N-[(2S,3R,4R,5R)-2,3,4,5,6-pentahydroxyhexyl]butanamide]
9 | < 100 nM | O=C(/C=C/C1CN(S(=O)(=O)c2ccc(Cl)c(COC3(c4cnccc4-c4ccccc4OC4CC4)CC3)c2)C1)NC[C@H](O)[C@@H](O)[C@H](O)[C@H](O)CO [Compound I-446, (2E)-3-{1-[4-chloro-3-({1-[4-(2-cyclopropoxyphenyl)pyridin-3-yl]cyclopropoxy}methyl)benzenesulfonyl]azetidin-3-yl}-N-[(2S,3R,4R,5R)-2,3,4,5,6-pentahydroxyhexyl]prop-2-enamide]
10 | < 100 nM | O=C(NCCOCCNS(=O)(=O)c1ccc(Cl)c(COC2(c3cnccc3-c3ccccc3OC3CC3)CC2)c1)N[C@@H](CO)[C@@H](O)[C@H](O)[C@H](O)CO (stereo in doubt) [Compound I-408, 1-(2-{2-[4-chloro-3-({1-[4-(2-cyclopropoxyphenyl)pyridin-3-yl]cyclopropoxy}methyl)benzenesulfonamido]ethoxy}ethyl)-3-[(2S,3R,4S,5R)-1,3,4,5,6-pentahydroxyhexan-2-yl]urea]
11 | < 100 nM | O=C(NCCOCC[S+]([O-])c1ccc(Cl)c(COC2(c3cnccc3-c3ccccc3OC3CC3)CC2)c1)N[C@@H](CO)[C@@H](O)[C@H](O)[C@H](O)CO (stereo partly drawn) [Compound I-644, 1-(2-{2-[4-chloro-3-({1-[4-(2-cyclopropoxyphenyl)pyridin-3-yl]cyclopropoxy}methyl)benzenesulfinyl]ethoxy}ethyl)-3-[(2S,3R,4S,5R)-1,3,4,5,6-pentahydroxyhexan-2-yl]urea]
12 | < 100 nM | CN(CCCCCSc1ccc(Cl)c(CNC2(c3cnccc3-c3ccccc3OC3CC3)CC2)c1)C(=O)[C@@H](O)[C@@H](O)[C@H](O)[C@@H](O)CO [Compound I-507, (2S,3S,4R,5S)-N-[5-({4-chloro-3-[({11-[4-(2-cyclopropoxyphenyl)pyridin-3-yl]cyclopropyl}amino)methyl]phenyl}sulfanyl)pentyl]-2,3,4,5,6-pentahydroxy-N-methylhexanamide]
13 | 126 to 1000 nM | O=C(NCCCCc1cc(Cl)c(CNC2(c3cnccc3-c3ccccc3OC3COC3)CC2)cc1Cl)NC[C@H](O)[C@@H](O)[C@H](O)[C@H](O)CO [Compound I-174, 1-[4-(2,5-dichloro-4-([(1-{4-[2-(oxetan-3-yloxy)phenyl]pyridin-3-yl}cyclopropyl)amino]methyl)phenyl)butyl]-3-[(2S,3R,4R,5R)-2,3,4,5,6-pentahydroxyhexyl]urea]
14 | < 100 nM | O=C(NCCCCCSc1ccc(Cl)c(COC2(c3cnccc3-c3ccccc3OC3CC3)CC2)c1)N[C@H]1CC[C@@H](NC(=O)NC[C@H](O)[C@@H](O)[C@H](O)[C@H](O)CO)CC1 [Compound I-634, 1-(5-{[4-chloro-3-({1-[4-(2-cyclopropoxyphenyl)pyridin-3-yl]cyclopropoxy}methyl)phenyl]sulfanyl}pentyl)-3-[(1s,4s)-4-({[(2S,3R,4R,5R)-2,3,4,5,6-pentahydroxyhexyl]carbamoyl}amino)cyclohexyl]urea]
15 | < 100 nM | COCCN(CCCCc1cc(Cl)c(COC2(c3cnccc3-c3ccccc3OC3CC3)CC2)cc1Cl)C(=O)[C@@H](O)[C@@H](O)[C@H](O)[C@@H](O)CO [Compound I-206, (2S,3S,4R,5S)-N-{4-[2,5-dichloro-4-({1-[4-(2-cyclopropoxyphenyl)pyridin-3-yl]cyclopropoxy}methyl)phenyl]butyl}-2,3,4,5,6-pentahydroxy-N-(2-methoxyethyl)hexanamide]
16 | 126 to 1000 nM | CS(=O)(=O)NCCCN(CCCSc1ccc(Cl)c(COC2(c3cnccc3-c3ccccc3OC3CC3)CC2)c1)C(=O)[C@@H](O)[C@@H](O)[C@H](O)[C@@H](O)CO [Compound I-592, (2S,3S,4R,5S)-N-(3-{[4-chloro-3-({1-[4-(2-cyclopropoxyphenyl)pyridin-3-yl]cyclopropoxy}methyl)phenyl]sulfanyl}propyl)-2,3,4,5,6-pentahydroxy-N-(3-methanesulfonamidopropyl) hexanamide]
17 | 126 to 1000 nM | Clc1ccc(Cl)c(CNC2(c3cnccc3-c3ccccc3)CC2)c1 [Compound I-14, N-[(2,5-dichlorophenyl)methyl]-1-(4-phenylpyridin-3-yl)cyclopropan-1-amine]
18 | 126 to 1000 nM | FC(F)(F)Oc1ccccc1-c1ccncc1C1(NCc2cc(Cl)ccc2Cl)CC1 [Compound I-11]
19 | 126 to 1000 nM | CC(=O)NCCCN(CCCCSc1ccc(Cl)c(CNC2(c3cnccc3-c3ccccc3OC3CC3)CC2)c1)C(=O)[C@@H](O)[C@@H](O)[C@H](O)[C@@H](O)CO [Compound I-573, (2S,3S,4R,5S)-N-[4-({4-chloro-3-[({1-[4-(2-cyclopropoxyphenyl)pyridin-3-yl]cyclopropyl}amino)methyl]phenyl}sulfanyl)butyl]-N-(3-acetamidopropyl)-2,3,4,5,6-pentahydroxyhexanamide]
20 | 126 to 1000 nM | CC(CCCN(C(=O)[C@@H](O)[C@@H](O)[C@H](O)[C@@H](O)CO)C1CCOCC1)c1ccc(Cl)c(CNC2(c3cnccc3-c3ccccc3OC3CC3)CC2)c1 (stereo partly drawn) [Compound I-285, (2S,3S,4R,5S)-N-(4-{4-chloro-3-[({1-[4-(2-cyclopropoxyphenyl)pyridin-3-yl]cyclopropyl}amino)methyl]phenyl}pentyl)-2,3,4,5,6-pentahydroxy-N-(oxan-4-yl)hexanamide]
21 | < 100 nM | CN(C[C@H](O)[C@@H](O)[C@H](O)[C@H](O)CO)C(=O)CCCCc1cc(Cl)c(CNC2(c3cnccc3-c3ccccc3OC3CC3)CC2)cc1Cl [Compound I-137, 5-{2,5-dichloro-4-[({1-[4-(2-cyclopropoxyphenyl)pyridin-3-yl]cyclopropyl}amino)methyl]phenyl}-N-methyl-N-[(2S,3R,4R,5R)-2,3,4,5,6-pentahydroxyhexyl]pentanamide]
